Experiments:
Assay in all cases: kinome screen (33PanQinase)
Type in all cases: biochemical
AMPKα1 = biological target: T1, AMPKα1 (Homo sapiens, UniProt Q13131)
T1 construct: purchased Reaction Biology Europe GmbH (formerly ProQinase)
Procedure: (§1) The Kinome Screening was performed by Reaction Biology Europe GmbH (http://reactionbiology.com; Freiburg i. Br., Germany).

DMPK = biological target: T2, DMPK (Homo sapiens, UniProt Q09013)
T2 construct: purchased Reaction Biology Europe GmbH (formerly ProQinase)
T2 sequence (Q09013 1-629): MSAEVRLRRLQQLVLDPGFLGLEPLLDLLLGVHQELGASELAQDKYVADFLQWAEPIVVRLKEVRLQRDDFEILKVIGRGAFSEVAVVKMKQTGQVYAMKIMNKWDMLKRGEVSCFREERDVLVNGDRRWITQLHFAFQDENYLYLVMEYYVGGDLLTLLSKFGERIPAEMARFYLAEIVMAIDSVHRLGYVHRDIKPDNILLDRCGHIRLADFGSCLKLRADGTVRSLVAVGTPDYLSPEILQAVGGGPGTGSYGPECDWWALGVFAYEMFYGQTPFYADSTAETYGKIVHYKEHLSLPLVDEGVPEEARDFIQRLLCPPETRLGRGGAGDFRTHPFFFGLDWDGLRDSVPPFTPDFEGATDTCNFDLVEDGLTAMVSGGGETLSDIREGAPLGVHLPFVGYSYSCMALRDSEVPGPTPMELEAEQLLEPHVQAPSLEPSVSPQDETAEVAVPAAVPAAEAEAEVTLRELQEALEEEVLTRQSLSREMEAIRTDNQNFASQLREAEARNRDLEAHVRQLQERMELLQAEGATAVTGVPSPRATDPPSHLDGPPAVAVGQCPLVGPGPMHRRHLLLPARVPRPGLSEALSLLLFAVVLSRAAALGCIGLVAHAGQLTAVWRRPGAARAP
Procedure: as §1

DYRK1A = biological target: T3, DYRK1A (Homo sapiens, UniProt Q13627)
T3 construct: purchased Reaction Biology Europe GmbH (formerly ProQinase)
Procedure: as §1

EGFR = biological target: T4, EGFR (Homo sapiens, UniProt P00533)
T4 construct: purchased Reaction Biology Europe GmbH (formerly ProQinase)
T4 sequence (P00533 25-1210): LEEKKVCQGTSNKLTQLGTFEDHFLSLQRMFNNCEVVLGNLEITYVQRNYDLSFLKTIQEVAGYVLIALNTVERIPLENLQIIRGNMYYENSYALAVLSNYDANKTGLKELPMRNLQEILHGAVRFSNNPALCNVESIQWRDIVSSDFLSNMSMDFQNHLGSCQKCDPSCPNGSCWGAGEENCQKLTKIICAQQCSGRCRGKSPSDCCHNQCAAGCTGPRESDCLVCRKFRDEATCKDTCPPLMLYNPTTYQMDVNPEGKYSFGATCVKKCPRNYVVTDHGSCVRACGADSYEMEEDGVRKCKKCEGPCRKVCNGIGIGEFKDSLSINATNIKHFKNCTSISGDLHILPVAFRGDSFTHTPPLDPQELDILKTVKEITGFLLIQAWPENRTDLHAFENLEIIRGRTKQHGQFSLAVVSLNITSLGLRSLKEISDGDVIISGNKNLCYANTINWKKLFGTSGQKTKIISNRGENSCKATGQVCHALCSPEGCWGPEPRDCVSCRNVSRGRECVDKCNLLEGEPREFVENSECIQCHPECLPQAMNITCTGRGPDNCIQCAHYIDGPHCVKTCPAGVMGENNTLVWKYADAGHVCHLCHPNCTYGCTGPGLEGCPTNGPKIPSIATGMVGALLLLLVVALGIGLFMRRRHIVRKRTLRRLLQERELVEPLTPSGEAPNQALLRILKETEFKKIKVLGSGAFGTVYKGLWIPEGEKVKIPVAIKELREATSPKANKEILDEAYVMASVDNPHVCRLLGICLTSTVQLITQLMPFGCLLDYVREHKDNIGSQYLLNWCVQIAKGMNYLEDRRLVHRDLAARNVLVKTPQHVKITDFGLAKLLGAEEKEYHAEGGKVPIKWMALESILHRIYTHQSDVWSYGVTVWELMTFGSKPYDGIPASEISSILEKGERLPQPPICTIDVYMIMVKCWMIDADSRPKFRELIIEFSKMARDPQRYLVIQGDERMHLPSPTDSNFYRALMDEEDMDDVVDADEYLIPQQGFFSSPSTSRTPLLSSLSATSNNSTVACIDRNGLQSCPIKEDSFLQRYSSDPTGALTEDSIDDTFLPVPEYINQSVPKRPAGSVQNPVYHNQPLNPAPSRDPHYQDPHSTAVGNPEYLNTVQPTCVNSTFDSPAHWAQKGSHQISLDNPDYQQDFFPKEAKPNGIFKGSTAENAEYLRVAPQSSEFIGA
Procedure: as §1

EPHB1 = biological target: T5, EPHB1 (Homo sapiens, UniProt P54762)
T5 construct: purchased Reaction Biology Europe GmbH (formerly ProQinase)
T5 sequence (P54762 18-984): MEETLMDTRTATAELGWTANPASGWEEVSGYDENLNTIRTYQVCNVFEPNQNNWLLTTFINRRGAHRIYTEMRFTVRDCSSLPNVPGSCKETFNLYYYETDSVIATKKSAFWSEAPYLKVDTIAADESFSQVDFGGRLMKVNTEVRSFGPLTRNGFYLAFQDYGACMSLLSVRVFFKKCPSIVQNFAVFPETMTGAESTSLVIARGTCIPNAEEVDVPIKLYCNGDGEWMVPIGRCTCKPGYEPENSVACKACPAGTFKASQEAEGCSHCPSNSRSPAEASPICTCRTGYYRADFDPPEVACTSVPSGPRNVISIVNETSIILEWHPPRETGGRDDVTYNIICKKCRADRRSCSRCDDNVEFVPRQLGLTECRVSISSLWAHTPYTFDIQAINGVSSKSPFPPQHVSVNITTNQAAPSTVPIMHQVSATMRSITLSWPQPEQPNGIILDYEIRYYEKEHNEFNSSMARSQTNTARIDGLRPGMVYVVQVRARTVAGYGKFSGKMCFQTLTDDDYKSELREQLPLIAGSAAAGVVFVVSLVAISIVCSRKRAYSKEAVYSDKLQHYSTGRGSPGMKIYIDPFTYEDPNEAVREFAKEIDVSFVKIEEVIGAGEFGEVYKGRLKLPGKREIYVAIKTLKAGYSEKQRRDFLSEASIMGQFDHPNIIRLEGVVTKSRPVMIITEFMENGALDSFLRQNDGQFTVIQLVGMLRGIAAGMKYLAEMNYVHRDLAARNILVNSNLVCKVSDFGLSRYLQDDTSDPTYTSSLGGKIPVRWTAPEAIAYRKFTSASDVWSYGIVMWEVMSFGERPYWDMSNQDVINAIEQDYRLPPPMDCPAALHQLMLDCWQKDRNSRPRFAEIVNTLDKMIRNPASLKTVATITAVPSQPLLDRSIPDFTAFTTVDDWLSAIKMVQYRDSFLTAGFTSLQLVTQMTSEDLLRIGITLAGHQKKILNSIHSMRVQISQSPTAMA
Procedure: as §1

ERK7 = biological target: T6, ERK7 (Homo sapiens, UniProt Q8TD08)
T6 construct: purchased Reaction Biology Europe GmbH (formerly ProQinase)
T6 sequence (Q8TD08 1-544): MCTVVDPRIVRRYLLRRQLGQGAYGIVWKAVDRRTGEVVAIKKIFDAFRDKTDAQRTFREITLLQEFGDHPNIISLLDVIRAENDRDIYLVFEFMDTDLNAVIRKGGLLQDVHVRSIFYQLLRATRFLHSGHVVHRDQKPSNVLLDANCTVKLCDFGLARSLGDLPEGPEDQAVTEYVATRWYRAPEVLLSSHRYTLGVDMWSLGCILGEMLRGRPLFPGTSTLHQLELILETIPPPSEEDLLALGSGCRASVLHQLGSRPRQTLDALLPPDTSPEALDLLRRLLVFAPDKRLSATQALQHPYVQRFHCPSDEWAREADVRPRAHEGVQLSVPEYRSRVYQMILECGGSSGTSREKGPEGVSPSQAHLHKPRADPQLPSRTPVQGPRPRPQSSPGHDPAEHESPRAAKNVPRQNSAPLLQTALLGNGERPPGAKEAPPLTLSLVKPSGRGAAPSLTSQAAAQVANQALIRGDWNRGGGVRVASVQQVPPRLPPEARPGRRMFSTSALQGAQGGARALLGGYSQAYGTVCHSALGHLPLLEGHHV
Procedure: as §1

FGR = biological target: T7, FGR (Homo sapiens, UniProt P09769)
T7 construct: purchased Reaction Biology Europe GmbH (formerly ProQinase)
T7 sequence (P09769 whole entry): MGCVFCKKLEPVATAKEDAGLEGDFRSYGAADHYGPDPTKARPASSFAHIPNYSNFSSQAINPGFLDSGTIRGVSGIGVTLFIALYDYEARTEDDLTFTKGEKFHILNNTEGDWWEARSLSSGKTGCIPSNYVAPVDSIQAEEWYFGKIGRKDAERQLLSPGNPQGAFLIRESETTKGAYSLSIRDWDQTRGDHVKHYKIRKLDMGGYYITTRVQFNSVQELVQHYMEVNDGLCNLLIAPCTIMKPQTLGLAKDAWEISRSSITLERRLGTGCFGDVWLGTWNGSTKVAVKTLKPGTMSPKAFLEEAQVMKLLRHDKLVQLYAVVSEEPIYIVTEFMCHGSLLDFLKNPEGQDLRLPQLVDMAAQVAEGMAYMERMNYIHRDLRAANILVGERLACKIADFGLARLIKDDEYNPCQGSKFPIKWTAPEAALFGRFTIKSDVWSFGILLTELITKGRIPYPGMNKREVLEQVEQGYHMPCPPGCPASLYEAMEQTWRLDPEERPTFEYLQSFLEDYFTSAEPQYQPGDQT
Procedure: as §1

NEK7 = biological target: T8, NEK7 (Homo sapiens, UniProt Q8TDX7)
T8 construct: purchased Reaction Biology Europe GmbH (formerly ProQinase)
T8 sequence (Q8TDX7 whole entry): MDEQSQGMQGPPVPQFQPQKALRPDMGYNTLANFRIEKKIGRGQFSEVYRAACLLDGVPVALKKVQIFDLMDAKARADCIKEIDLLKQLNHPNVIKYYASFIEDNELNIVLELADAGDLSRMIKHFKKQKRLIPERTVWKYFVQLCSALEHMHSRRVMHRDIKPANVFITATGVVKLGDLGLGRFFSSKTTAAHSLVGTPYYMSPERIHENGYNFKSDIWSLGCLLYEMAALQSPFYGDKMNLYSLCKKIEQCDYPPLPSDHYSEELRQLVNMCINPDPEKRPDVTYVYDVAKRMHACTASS
Procedure: as §1

PKCβ1 = biological target: T9, PKCβ1 (Homo sapiens, UniProt P05771)
T9 construct: purchased Reaction Biology Europe GmbH (formerly ProQinase)
T9 sequence (P05771 whole entry): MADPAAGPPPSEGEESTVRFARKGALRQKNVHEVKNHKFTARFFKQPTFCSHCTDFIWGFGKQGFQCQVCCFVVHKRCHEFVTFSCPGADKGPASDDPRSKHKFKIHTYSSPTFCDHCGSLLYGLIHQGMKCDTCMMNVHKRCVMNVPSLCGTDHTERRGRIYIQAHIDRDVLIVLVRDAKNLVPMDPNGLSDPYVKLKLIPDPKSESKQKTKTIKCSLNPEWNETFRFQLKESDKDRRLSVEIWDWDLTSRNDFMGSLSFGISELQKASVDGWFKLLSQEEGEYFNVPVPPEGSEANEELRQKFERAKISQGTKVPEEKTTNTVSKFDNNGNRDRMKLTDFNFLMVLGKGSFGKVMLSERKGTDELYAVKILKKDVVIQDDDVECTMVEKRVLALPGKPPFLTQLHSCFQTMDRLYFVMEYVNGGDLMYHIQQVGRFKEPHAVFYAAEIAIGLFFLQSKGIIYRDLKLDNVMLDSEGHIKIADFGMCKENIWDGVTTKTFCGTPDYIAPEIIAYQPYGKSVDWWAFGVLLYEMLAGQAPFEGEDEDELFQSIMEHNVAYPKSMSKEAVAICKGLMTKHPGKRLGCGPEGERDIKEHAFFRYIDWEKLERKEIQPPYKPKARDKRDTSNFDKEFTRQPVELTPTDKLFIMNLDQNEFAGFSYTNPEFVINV
Procedure: as §1

TGFBR2 = biological target: T10, TGFBR2 (Homo sapiens, UniProt P37173)
T10 construct: purchased Reaction Biology Europe GmbH (formerly ProQinase)
T10 sequence (P37173 23-567): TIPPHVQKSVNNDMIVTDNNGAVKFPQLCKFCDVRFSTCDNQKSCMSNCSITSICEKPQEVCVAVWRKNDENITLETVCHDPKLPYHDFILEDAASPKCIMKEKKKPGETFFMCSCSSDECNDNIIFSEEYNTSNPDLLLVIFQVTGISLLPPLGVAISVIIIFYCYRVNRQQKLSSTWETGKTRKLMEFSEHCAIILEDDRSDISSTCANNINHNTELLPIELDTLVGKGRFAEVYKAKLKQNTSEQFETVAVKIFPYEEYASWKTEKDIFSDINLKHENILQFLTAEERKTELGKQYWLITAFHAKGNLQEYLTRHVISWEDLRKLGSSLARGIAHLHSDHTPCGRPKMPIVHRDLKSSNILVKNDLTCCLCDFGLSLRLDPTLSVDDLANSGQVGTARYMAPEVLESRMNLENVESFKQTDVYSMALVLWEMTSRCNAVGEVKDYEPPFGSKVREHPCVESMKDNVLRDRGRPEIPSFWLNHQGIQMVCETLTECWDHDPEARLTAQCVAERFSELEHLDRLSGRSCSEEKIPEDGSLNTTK
Procedure: as §1

TIE2 = biological target: T11, TIE2 (Homo sapiens, UniProt Q02763)
T11 construct: purchased Reaction Biology Europe GmbH (formerly ProQinase)
T11 sequence (Q02763 23-1124): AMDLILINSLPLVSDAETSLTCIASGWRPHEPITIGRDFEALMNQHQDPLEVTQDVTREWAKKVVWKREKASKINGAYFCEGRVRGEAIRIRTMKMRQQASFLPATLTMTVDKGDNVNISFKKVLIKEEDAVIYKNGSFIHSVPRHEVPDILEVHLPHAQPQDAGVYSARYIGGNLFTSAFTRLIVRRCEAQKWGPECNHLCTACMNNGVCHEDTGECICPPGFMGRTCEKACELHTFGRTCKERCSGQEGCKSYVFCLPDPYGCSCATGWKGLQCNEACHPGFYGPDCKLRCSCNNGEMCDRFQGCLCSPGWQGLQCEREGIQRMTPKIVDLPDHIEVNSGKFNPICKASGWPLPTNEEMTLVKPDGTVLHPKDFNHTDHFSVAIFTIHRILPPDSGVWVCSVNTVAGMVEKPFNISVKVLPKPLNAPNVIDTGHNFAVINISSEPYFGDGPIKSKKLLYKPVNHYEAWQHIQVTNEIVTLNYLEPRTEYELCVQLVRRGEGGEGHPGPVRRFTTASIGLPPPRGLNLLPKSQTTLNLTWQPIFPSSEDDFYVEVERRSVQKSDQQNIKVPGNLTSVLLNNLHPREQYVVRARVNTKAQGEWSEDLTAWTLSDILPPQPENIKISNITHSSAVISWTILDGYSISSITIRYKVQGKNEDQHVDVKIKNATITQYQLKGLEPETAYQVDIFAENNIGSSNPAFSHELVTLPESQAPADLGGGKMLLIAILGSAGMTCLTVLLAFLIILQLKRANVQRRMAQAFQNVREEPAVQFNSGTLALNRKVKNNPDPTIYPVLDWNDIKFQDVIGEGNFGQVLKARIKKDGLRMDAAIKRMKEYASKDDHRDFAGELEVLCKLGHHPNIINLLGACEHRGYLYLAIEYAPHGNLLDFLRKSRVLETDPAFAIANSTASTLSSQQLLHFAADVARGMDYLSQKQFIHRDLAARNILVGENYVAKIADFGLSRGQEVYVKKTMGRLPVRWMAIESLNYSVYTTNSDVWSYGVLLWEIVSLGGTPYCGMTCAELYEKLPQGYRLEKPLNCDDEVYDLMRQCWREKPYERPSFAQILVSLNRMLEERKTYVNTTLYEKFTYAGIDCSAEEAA
Procedure: as §1

ZAK = biological target: T12, ZAK (Homo sapiens, UniProt Q9NYL2)
T12 construct: purchased Reaction Biology Europe GmbH (formerly ProQinase)
Procedure: as §1

T1 sequence (Q13131 10-559 limits assumed): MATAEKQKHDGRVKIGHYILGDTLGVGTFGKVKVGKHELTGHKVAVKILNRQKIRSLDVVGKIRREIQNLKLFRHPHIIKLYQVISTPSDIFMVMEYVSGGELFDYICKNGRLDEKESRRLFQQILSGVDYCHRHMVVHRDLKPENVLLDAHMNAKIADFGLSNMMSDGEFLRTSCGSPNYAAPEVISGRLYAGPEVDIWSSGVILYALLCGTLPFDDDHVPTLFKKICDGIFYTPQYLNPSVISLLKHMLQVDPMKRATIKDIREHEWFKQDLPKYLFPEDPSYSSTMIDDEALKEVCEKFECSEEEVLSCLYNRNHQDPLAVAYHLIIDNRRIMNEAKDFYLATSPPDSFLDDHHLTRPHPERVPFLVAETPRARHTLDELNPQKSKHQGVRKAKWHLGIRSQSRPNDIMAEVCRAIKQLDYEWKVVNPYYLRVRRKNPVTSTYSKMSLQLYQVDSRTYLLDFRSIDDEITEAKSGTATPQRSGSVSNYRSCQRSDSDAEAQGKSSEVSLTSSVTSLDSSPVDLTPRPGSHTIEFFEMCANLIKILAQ

SMILES	residual kinase activity (AMPKα1; 0.3 µM)	residual kinase activity (DMPK; 0.3 µM)	residual kinase activity (DYRK1A; 0.3 µM)	residual kinase activity (EGFR; 0.3 µM)	residual kinase activity (EPHB1; 0.3 µM)	residual kinase activity (ERK7; 0.3 µM)	residual kinase activity (FGR; 0.3 µM)	residual kinase activity (NEK7; 0.3 µM)	residual kinase activity (PKCβ1; 0.3 µM)	residual kinase activity (TGFBR2; 0.3 µM)	residual kinase activity (TIE2; 0.3 µM)	residual kinase activity (ZAK; 0.3 µM)	further results
COc1ccnc2[nH]cc(-c3cc(N)nc(N)c3)c12 [meriolin 16]	78 % of control	63 % of control	2 % of control	90 % of control	97 % of control	59 % of control	105 % of control	96 % of control	50 % of control	85 % of control	105 % of control	83 % of control	residual kinase activity (AMPKα1; 0.03 µM): 108 % of control; residual kinase activity (DMPK; 0.03 µM): 86 % of control; residual kinase activity (DYRK1A; 0.03 µM): 11 % of control; residual kinase activity (EGFR; 0.03 µM): 109 % of control; residual kinase activity (EPHB1; 0.03 µM): 98 % of control; residual kinase activity (ERK7; 0.03 µM): 86 % of control; residual kinase activity (FGR; 0.03 µM): 111 % of control; residual kinase activity (NEK7; 0.03 µM): 111 % of control; residual kinase activity (PKCβ1; 0.03 µM): 103 % of control; residual kinase activity (TGFBR2; 0.03 µM): 109 % of control; residual kinase activity (TIE2; 0.03 µM): 132 % of control; residual kinase activity (ZAK; 0.03 µM): 96 % of control
c1ccc(CNc2cc(-c3c[nH]c4ncccc34)ccn2)cc1 [meriolin 36]	57 % of control	3 % of control	7 % of control	107 % of control	124 % of control	7 % of control	40 % of control	103 % of control	53 % of control	72 % of control	113 % of control	57 % of control	residual kinase activity (AMPKα1; 3 µM): 9 % of control; residual kinase activity (DMPK; 3 µM): -2 % of control; residual kinase activity (DYRK1A; 3 µM): 0 % of control; residual kinase activity (EGFR; 3 µM): 53 % of control; residual kinase activity (EPHB1; 3 µM): 79 % of control; residual kinase activity (ERK7; 3 µM): -3 % of control; residual kinase activity (FGR; 3 µM): 6 % of control; residual kinase activity (NEK7; 3 µM): 107 % of control; residual kinase activity (PKCβ1; 3 µM): 9 % of control; residual kinase activity (TGFBR2; 3 µM): 24 % of control; residual kinase activity (TIE2; 3 µM): 65 % of control; residual kinase activity (ZAK; 3 µM): 14 % of control

Reference: article PMC11167047 (Cell Death Discovery, 2024)
